In the oligonucleotide strings, read from the 5' end, every base follows the letter of its sugar. An asterisk marks phosphorothioate; unmarked linkages are phosphodiester. Other units and linkages are bracketed, terminal groups are in braces. A string of capitals states the bases alone. e = 2'-O-(2-methoxyethyl) (MOE); [5mC] = 5-methylcytosine; d = 2'-deoxy (DNA)
Tested on: human apolipoprotein B mRNA
Assay: Inhibition of human apolipoprotein B mRNA levels in HepG2 cells, quantitative real-time PCR
Type: cell-based
Conditions: HepG2 cells; human apolipoprotein B mRNA; oligonucleotides targeting genomic sequence SEQ ID NO 334; averages from two experiments
How it was run: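 HepG2 cells at 80% confluency were transfected with antisense oligonucleotide using 3.75 μg/mL Lipofectin in Opti-MEM for 4-7 h and harvested 16-24 h after treatment. Apolipoprotein B mRNA was measured by real-time RT-PCR and normalized to GAPDH or RiboGreen total RNA. Percent inhibition came from untreated-control standard curves.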

Substance | % INHIB [%]
301049 (eT*e[5mC]*eT*eG*eT*dA*dA*dG*dA*d[5mC]*dA*dG*dG*dA*dG*eA*eA*eA*eG*eA; antisense) [compound 301049] | 41
301050 (eA*eT*eT*eT*e[5mC]*d[5mC]*dT*d[5mC]*dT*dT*d[5mC]*dT*dG*dT*dA*eA*eG*eA*e[5mC]*eA; antisense) [compound 301050] | 22
301051 (eG*eA*eT*eG*e[5mC]*d[5mC]*dT*dT*dA*d[5mC]*dT*dT*dG*dG*dA*e[5mC]*eA*eG*eA*e[5mC]; antisense) [compound 301051] | 27
301052 (eA*eG*eA*eA*eA*dT*dA*dG*d[5mC]*dT*d[5mC]*dT*d[5mC]*d[5mC]*d[5mC]*eA*eA*eG*eG*eA; antisense) [compound 301052] | 13
301053 (eG*eT*e[5mC]*eG*e[5mC]*dA*dT*d[5mC]*dT*dT*d[5mC]*dT*dA*dA*d[5mC]*eG*eT*eG*eG*eG; antisense) [compound 301053] | 45
301054 (eT*e[5mC]*e[5mC]*eT*e[5mC]*d[5mC]*dA*dT*dA*d[5mC]*d[5mC]*dT*dT*dG*d[5mC]*eA*eG*eT*eT*eG; antisense) [compound 301054] | 0
301055 (eT*eG*eG*e[5mC]*eT*d[5mC]*dA*dT*dG*dT*d[5mC]*dT*dA*d[5mC]*d[5mC]*eA*eT*eA*eT*eT; antisense) [compound 301055] | 49
301056 (e[5mC]*eA*eG*eT*eT*dG*dA*dA*dA*dT*dG*d[5mC]*dA*dG*d[5mC]*eT*eA*eA*eT*eG; antisense) [compound 301056] | 35
301057 (eT*eG*e[5mC]*eA*eG*dA*d[5mC]*dT*dA*dG*dG*dA*dG*dT*dG*eA*eA*eA*eG*eT; antisense) [compound 301057] | 30
301058 (eA*eG*eG*eA*eG*dG*dA*dT*dG*dT*d[5mC]*d[5mC]*dT*dT*dT*eT*eA*eT*eT*eG; antisense) [compound 301058] | 27
301059 (eA*eT*e[5mC]*eA*eG*dA*dG*d[5mC]*dA*d[5mC]*d[5mC]*dA*dA*dA*dG*eG*eG*eA*eA*eT; antisense) [compound 301059] | 12
301060 (e[5mC]*e[5mC]*eA*eG*e[5mC]*dT*d[5mC]*dA*dA*d[5mC]*d[5mC]*dT*dG*dA*dG*eA*eA*eT*eT*e[5mC]; antisense) [compound 301060] | 17
301061 (e[5mC]*eA*eT*eG*eA*d[5mC]*dT*dT*dA*d[5mC]*d[5mC]*dT*dG*dG*dA*e[5mC]*eA*eT*eG*eG; antisense) [compound 301061] | 52
301062 (e[5mC]*e[5mC]*eT*e[5mC]*eA*dG*d[5mC]*dG*dG*dA*d[5mC]*dA*d[5mC]*dA*d[5mC]*eA*e[5mC]*eA*e[5mC]*eA; antisense) [compound 301062] | 21
301063 (eG*eT*e[5mC]*eA*e[5mC]*dA*dT*d[5mC]*d[5mC]*dG*dT*dG*d[5mC]*d[5mC]*dT*eG*eG*eT*eG*e[5mC]; antisense) [compound 301063] | 41
301064 (e[5mC]*eA*eG*eT*eG*d[5mC]*d[5mC]*dT*d[5mC]*dT*dG*dG*dG*dA*d[5mC]*e[5mC]*e[5mC]*e[5mC]*eA*e[5mC]; antisense) [compound 301064] | 60
301065 (eA*eG*e[5mC]*eT*eG*d[5mC]*dA*dG*dT*dG*dG*d[5mC]*d[5mC]*dG*dA*eT*e[5mC]*eA*eG*e[5mC]; antisense) [compound 301065] | 50
301066 (eG*eA*e[5mC]*e[5mC]*eT*d[5mC]*d[5mC]*d[5mC]*d[5mC]*dA*dG*d[5mC]*d[5mC]*dA*d[5mC]*eG*eT*eG*eG*eA; antisense) [compound 301066] | 61
301067 (eT*e[5mC]*eT*eG*eA*dT*d[5mC]*dA*d[5mC]*d[5mC]*dA*dT*dA*d[5mC]*dA*eT*eT*eA*e[5mC]*eA; antisense) [compound 301067] | 45
301068 (eA*eT*eT*eT*e[5mC]*d[5mC]*d[5mC]*dA*d[5mC]*dT*dG*dG*dG*dT*dA*e[5mC]*eT*e[5mC]*eT*e[5mC]; antisense) [compound 301068] | 44
301069 (eG*eG*e[5mC]*eT*eG*dA*dA*dG*d[5mC]*d[5mC]*d[5mC]*dA*dT*dG*d[5mC]*eT*eG*eA*e[5mC]*eT; antisense) [compound 301069] | 44
301070 (eG*eT*eT*eG*eG*dA*d[5mC]*dA*dG*dT*d[5mC]*dA*dT*dT*d[5mC]*eT*eT*eT*eT*eG; antisense) [compound 301070] | 38
301071 (e[5mC]*eA*e[5mC]*eT*eT*dG*dT*dT*dG*dG*dA*d[5mC]*dA*dG*dT*e[5mC]*eA*eT*eT*e[5mC]; antisense) [compound 301071] | 48
301072 (eA*eT*eT*eT*eT*dA*dA*dA*dT*dT*dA*d[5mC]*dA*dG*dT*eA*eG*eA*eT*eA; antisense) [compound 301072] | 43
301073 (e[5mC]*eT*eG*eT*eT*d[5mC]*dT*d[5mC]*d[5mC]*dA*d[5mC]*d[5mC]*d[5mC]*dA*dT*eA*eT*e[5mC]*eA*eG; antisense) [compound 301073] | 37

Substance | % INHIB [%]
301074 (eG*eA*eG*e[5mC]*eT*d[5mC]*dA*dT*dA*d[5mC]*d[5mC]*dT*dG*dT*d[5mC]*e[5mC]*e[5mC]*eA*eG*eA; antisense) [compound 301074] | 75
301075 (eT*eT*e[5mC]*eA*eA*dG*dG*dG*d[5mC]*d[5mC]*dA*d[5mC]*dT*dG*d[5mC]*eT*eA*eT*e[5mC]*eA; antisense) [compound 301075] | 52
301076 (e[5mC]*e[5mC]*eA*eG*eT*dA*dT*dT*dT*d[5mC]*dA*d[5mC]*dG*d[5mC]*d[5mC]*eA*eA*eT*e[5mC]*e[5mC]; antisense) [compound 301076] | 36
301077 (eG*eG*e[5mC]*eA*eG*dG*dA*dG*dG*dA*dA*d[5mC]*d[5mC]*dT*d[5mC]*eG*eG*eG*e[5mC]*eA; antisense) [compound 301077] | 55
301078 (eT*eT*eT*eT*eA*dA*dA*dA*dT*dT*dA*dG*dA*d[5mC]*d[5mC]*e[5mC]*eA*eA*e[5mC]*e[5mC]; antisense) [compound 301078] | 22
301079 (eT*eG*eA*e[5mC]*eT*dG*dT*dT*dT*dT*dA*dA*dA*dA*dT*eT*eA*eG*eA*e[5mC]; antisense) [compound 301079] | 20
301080 (e[5mC]*e[5mC]*e[5mC]*eA*eG*d[5mC]*dA*dA*dA*d[5mC]*dA*d[5mC]*dA*dG*dG*eT*eG*eA*eA*eG; antisense) [compound 301080] | 25
301081 (eG*eA*eG*eT*eG*dT*dG*dG*dT*d[5mC]*dT*dT*dG*d[5mC]*dT*eA*eG*eT*eG*e[5mC]; antisense) [compound 301081] | 46
301082 (antisense e[5mC]*eT*eA*eT*eG*d[5mC]*dA*dG*dA*dG*dT*dG*dT*dG*dG*eT*e[5mC]*eT*eT*eG) [compound 301082] | 41
301083 (antisense eA*eG*eA*eA*eG*dA*dT*dG*d[5mC]*dA*dA*d[5mC]*d[5mC]*dA*d[5mC]*eA*eT*eG*eT*eA) [compound 301083] | 29
301084 (antisense eA*e[5mC]*eA*e[5mC]*eG*dG*dT*dA*dT*d[5mC]*d[5mC]*dT*dA*dT*dG*eG*eA*eG*eG*eA) [compound 301084] | 49
301085 (antisense eT*eG*eG*eG*eA*d[5mC]*dT*dT*dA*d[5mC]*d[5mC]*dA*dT*dG*d[5mC]*e[5mC]*eT*eT*eT*eG) [compound 301085] | 11
301086 (antisense eG*eG*eT*eT*eT*dT*dG*d[5mC]*dT*dG*d[5mC]*d[5mC]*d[5mC]*dT*dA*e[5mC]*eA*eT*e[5mC]*e[5mC]) [compound 301086] | 30
301087 (antisense eA*e[5mC]*eA*eA*eG*dG*dA*dG*dT*d[5mC]*d[5mC]*dT*dT*dG*dT*eG*e[5mC]*eA*eG*eA) [compound 301087] | 40
301088 (antisense eA*eT*eG*eT*eT*d[5mC]*dA*d[5mC]*dT*dG*dA*dG*dA*d[5mC]*dA*eG*eG*e[5mC]*eT*eG) [compound 301088] | 41
301089 (antisense eG*eA*eA*eG*eG*dT*d[5mC]*d[5mC]*dA*dT*dG*dG*dT*dT*d[5mC]*eA*eT*e[5mC]*eT*eG) [compound 301089] | 0
301090 (antisense eA*eT*eT*eA*eG*dA*d[5mC]*dT*dG*dG*dA*dA*dG*d[5mC]*dA*eT*e[5mC]*e[5mC]*eT*eG) [compound 301090] | 39
301091 (antisense eG*eA*eG*eA*eT*dT*dG*dG*dA*dG*dA*d[5mC]*dG*dA*dG*e[5mC]*eA*eT*eT*eT) [compound 301091] | 35
301092 (antisense e[5mC]*eA*eT*eG*eA*d[5mC]*d[5mC]*dT*dA*d[5mC]*dT*dT*dG*dT*dA*eG*eG*eA*eG*eA) [compound 301092] | 22
301093 (antisense eT*eG*eG*eA*eT*dT*dT*dG*dG*dA*dT*dA*d[5mC]*dA*d[5mC]*eA*eA*eG*eT*eT) [compound 301093] | 42
301094 (antisense eA*e[5mC]*eT*e[5mC]*eA*dA*dT*dA*dT*dA*dT*dA*dT*dT*d[5mC]*eA*eT*eT*eG*eA) [compound 301094] | 22
301095 (antisense e[5mC]*eA*eA*eG*eG*dA*dA*dG*d[5mC]*dA*d[5mC]*dA*d[5mC]*d[5mC]*dA*eT*eG*eT*e[5mC]*eA) [compound 301095] | 38
301096 (antisense eA*eT*eA*e[5mC]*eT*dT*dA*dT*dT*d[5mC]*d[5mC]*dT*dG*dG*dT*eA*eA*e[5mC]*e[5mC]*eA) [compound 301096] | 24
301097 (antisense eG*eG*eT*eA*eG*d[5mC]*d[5mC]*dA*dG*dA*dA*d[5mC]*dA*d[5mC]*d[5mC]*eA*eG*eT*eG*eT) [compound 301097] | 50

— patent US7803930B2, “Antisense modulation of apolipoprotein B-expression” (Isis Pharmaceuticals, Inc., priority 2002, dated 2010)
